Key:
FAAH = FAAH (Mus musculus (Mouse), UniProt O08914); assay: In vitro competitive activity-based protein profiling, FAAH (mouse); assay type: biochemical; details: for inhibition at 1 µM: read-out: FAAH % inh. 1 μM (mouse)
Outline: (§1)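 Residual MAGL and FAAH activity came from in-gel fluorescence after competition between inhibitor (30 min preincubation, 37° C) and the activity-based probe FP-Rh or HT-01 (30 min, 37° C) in mouse or human tissue or cell proteomes.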

MAGL = MAGL (Mus musculus (Mouse), UniProt O35678); assay: In vitro competitive activity-based protein profiling, MAGL (mouse); assay type: biochemical; details: for inhibition at 1 µM: read-out: MAGL % inh. 1 μM (mouse)
Outline: as §1

Sequence of FAAH (O08914 whole entry): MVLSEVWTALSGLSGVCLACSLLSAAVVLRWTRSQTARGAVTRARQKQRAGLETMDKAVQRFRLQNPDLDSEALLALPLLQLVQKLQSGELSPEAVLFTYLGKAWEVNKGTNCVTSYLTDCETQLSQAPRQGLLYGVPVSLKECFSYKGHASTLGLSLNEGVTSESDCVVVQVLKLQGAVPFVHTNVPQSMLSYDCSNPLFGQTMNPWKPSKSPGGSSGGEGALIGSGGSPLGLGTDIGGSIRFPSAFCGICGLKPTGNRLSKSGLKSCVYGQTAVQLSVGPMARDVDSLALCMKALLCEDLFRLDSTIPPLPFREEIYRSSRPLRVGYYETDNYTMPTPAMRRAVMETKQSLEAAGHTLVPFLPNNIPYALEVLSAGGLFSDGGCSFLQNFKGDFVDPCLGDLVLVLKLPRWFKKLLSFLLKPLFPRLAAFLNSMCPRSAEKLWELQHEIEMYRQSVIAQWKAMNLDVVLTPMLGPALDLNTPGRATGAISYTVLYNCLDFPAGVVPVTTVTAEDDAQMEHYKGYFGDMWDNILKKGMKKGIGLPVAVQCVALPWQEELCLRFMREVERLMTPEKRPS
Sequence of MAGL (O35678 whole entry): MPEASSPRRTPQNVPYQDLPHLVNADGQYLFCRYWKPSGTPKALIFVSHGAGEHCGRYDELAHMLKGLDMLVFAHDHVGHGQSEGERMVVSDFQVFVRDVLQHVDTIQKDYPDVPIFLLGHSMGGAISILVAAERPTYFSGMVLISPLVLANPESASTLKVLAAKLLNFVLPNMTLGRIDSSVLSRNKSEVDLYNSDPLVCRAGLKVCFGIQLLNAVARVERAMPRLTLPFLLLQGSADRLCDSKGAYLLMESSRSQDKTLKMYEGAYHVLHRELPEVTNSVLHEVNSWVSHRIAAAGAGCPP

IC50 (FAAH) [nM]	inhibition at 1 µM (FAAH) [%]	IC50 (MAGL) [nM]	inhibition at 1 µM (MAGL) [%]	SMILES
≤ 100	≥ 75	100 to 1000	≥ 75	CC(=O)N(C)c1cnn(C(=O)N2CC3CN(Cc4ccc(F)c(Cl)c4)CC3C2)c1 (stereo not drawn) [Example 122, N-(1-(5-(3-chloro-4 fluorobenzyl)octahydropyrrolo[3,4-c]pyrrole-2-carbonyl)-1H-pyrazol-4-yl)-N-methylacetamide]
≤ 100	≥ 75	≤ 100	≥ 75	CC(=O)N(C)c1cnn(C(=O)N2CC3CN(Cc4c(Cl)cccc4Cl)CC3C2)c1 (stereo not drawn) [Example 111, N-(1-(5-(2,6-dichlorobenzyl)octahydropyrrolo[3,4-c]pyrrole-2-carbonyl)-1H-pyrazol-4-yl)-N-methylacetamide]
	50 to 75		≥ 75	CC(=O)N(C)c1cnn(C(=O)N2CC3CN(Cc4ccccc4N4CCCC4)CC3C2)c1 (stereo not drawn) [Example 184, N-methyl-N-(1-(5-(2-(pyrrolidin-1-yl)benzyl)octahydropyrrolo[3,4-c]pyrrole-2-carbonyl)-1H-pyrazol-4-yl)acetamide]
	≥ 75		25 to 50	COc1ccc(CN2CC3CN(C(=O)n4cc(N(C)C(C)=O)cn4)CC3C2)cc1 (stereo not drawn) [Example 179, N-(1-(5-(4-methoxybenzyl)octahydropyrrolo[3,4-c]pyrrole-2-carbonyl)-1H-pyrazol-4-yl)-N-methylacetamide]
≤ 100	≥ 75	≤ 100	≥ 75	CC(=O)N(C)c1cnn(C(=O)N2CC3CN(Cc4cccc(N5CCCC5)c4)CC3C2)c1 (stereo not drawn) [Example 119, N-methyl-N-(1-(5-(3-(pyrrolidin-1-yl)benzyl)octahydropyrrolo[3,4-c]pyrrole-2-carbonyl)-1H-pyrazol-4-yl)acetamide]
≤ 100	≥ 75	≤ 100	≥ 75	CC(=O)N(C)c1cnn(C(=O)N2CC3CN(Cc4ccc(Cl)cc4Cl)CC3C2)c1 (stereo not drawn) [Example 113, N-(1-(5-(2,4-dichlorobenzyl)octahydropyrrolo[3,4-c]pyrrole-2-carbonyl)-1H-pyrazol-4-yl)-N-methylacetamide]
	≥ 75		50 to 75	CC(=O)N(C)c1cnn(C(=O)N2CC3CN(Cc4ccc(Oc5ccnnc5)cc4Cl)CC3C2)c1 (stereo not drawn) [Example 257, N-(1-(5-(2-chloro-4-(pyridazin-4-yloxy)benzyl)octahydropyrrolo[3,4-c]pyrrole-2-carbonyl)-1H-pyrazol-4-yl)-N-methylacetamide]
≤ 100	≥ 75	≤ 100	≥ 75	CC(=O)N(C)c1cnn(C(=O)N2CC3CN(Cc4ccc(N5CCCC5)c(Cl)c4)CC3C2)c1 (stereo not drawn) [Example 123, N-(1-(5-(3-chloro-4-(pyrrolidin-1-yl)benzyl)octahydropyrrolo[3,4-c]pyrrole-2-carbonyl)-1H-pyrazol-4-yl)-N-methylacetamide]
	≥ 75		≥ 75	CC(=O)N(C)c1cnn(C(=O)N2CC3CN(Cc4cc(C(F)(F)F)ccc4Cl)CC3C2)c1 (stereo not drawn) [Example 106, N-(1-(5-(2-chloro-5-(trifluoromethyl)benzyl)octahydropyrrolo[3,4-c]pyrrole-2-carbonyl)-1H-pyrazol-4-yl)-N-methylacetamide]

Continued, compound first:

SMILES	IC50 (FAAH) [nM]	inhibition at 1 µM (FAAH) [%]	IC50 (MAGL) [nM]	inhibition at 1 µM (MAGL) [%]
CC(=O)N(C)c1cnn(C(=O)N2CCN(Cc3ccccc3C(F)(F)F)CC2)c1 [Example 214, N-methyl-N-(1-(4-(2-(trifluoromethyl)benzyl)piperazine-1-carbonyl)-1H-pyrazol-4-yl)acetamide]	≤ 100	≥ 75	≤ 100	≥ 75
CC(=O)N(C)c1cnn(C(=O)N2CCC3(CCN(Cc4cc(N5CCOCC5)cc(C(F)(F)F)c4)C3)C2)c1 (stereo not drawn) [Example 68, N-methyl-N-(1-(7-(3-morpholino-5-(trifluoromethyl)benzyl)-2,7-diazaspiro[4.4]nonane-2-carbonyl)-1H-pyrazol-4-yl)acetamide]	≤ 100	≥ 75	100 to 1000	≥ 75
CC(=O)N(C)c1cnn(C(=O)N2CCC3(CCN(Cc4cc(Cl)ccc4C(F)(F)F)C3)C2)c1 (stereo not drawn) [Example 70, N-(1-(7-(5-chloro-2-(trifluoromethyl)benzyl)-2,7-diazaspiro[4.4]nonane-2-carbonyl)-1H-pyrazol-4-yl)-N-methylacetamide]	≤ 100	≥ 75	≤ 100	≥ 75
CC(=O)N(C)c1cnn(C(=O)N2C[C@H]3C[C@H](N(Cc4ccc(Cl)cc4)C(C)=O)C[C@H]3C2)c1 [Example 174, N-(4-chlorobenzyl)-N-(trans-2-(4-(N-methylacetamido)-1H-pyrazole-1-carbonyl)octahydrocyclopenta[c]pyrrol-5-yl)acetamide]		0 to 25		≥ 75
CC(=O)N(C)c1cnn(C(=O)N2CCN(Cc3ccccc3F)CC2)c1 [Example 211, N-(1-(4-(2-fluorobenzyl)piperazine-1-carbonyl)-1H-pyrazol-4-yl)-N-methylacetamide]		≥ 75		≥ 75
CC(=O)N(C)c1cnn(C(=O)N2CC3CN(Cc4cc(Cl)cc(N5CCC6(CCOCC6)C5)c4)CC3C2)c1 (stereo not drawn) [Example 247, N-(1-(5-(3-chloro-5-(8-oxa-2-azaspiro[4.5]decan-2-yl)benzyl)octahydropyrrolo[3,4-c]pyrrole-2-carbonyl)-1H-pyrazol-4-yl)-N-methylacetamide]		≥ 75		≥ 75
CC(=O)N(C)c1cnn(C(=O)N2CCN(Cc3ccc(N4CCCC4)cc3)CC2)c1 [Example 197, N-methyl-N-(1-(4-(4-(pyrrolidin-1-yl)benzyl)piperazine-1-carbonyl)-1H-pyrazol-4-yl)acetamide]	100 to 1000	≥ 75	100 to 1000	≥ 75
CC(=O)Nc1cnn(C(=O)N2CCN(Cc3ccc(C(F)(F)F)cc3N3C4CCC3COC4)CC2)c1 [Example 228, N-(1-(4-(2-(3-oxa-8-azabicyclo[3.2.1]octan-8-yl)-4-(trifluoromethyl)benzyl)piperazine-1-carbonyl)-1H-pyrazol-4-yl)acetamide]	1000 to 10000	0 to 25	100 to 1000	≥ 75
CC(=O)N(C)c1cnn(C(=O)N2CCN(Cc3ccccc3N3CCCC3)CC2)c1 [Example 215, N-methyl-N-(1-(4-(2-(pyrrolidin-1-yl)benzyl)piperazine-1-carbonyl)-1H-pyrazol-4-yl)acetamide]		25 to 50		≥ 75
CC(=O)N(C)c1cnn(C(=O)N2CC3CN(Cc4ccc(OC5CCN(C6CC6)CC5)cc4C(F)(F)F)CC3C2)c1 (stereo not drawn) [Example 271, N-(1-(5-(4-((1-cyclopropylpiperidin-4-yl)oxy)-2-(trifluoromethyl)benzyl)octahydropyrrolo [3,4-c]pyrrole-2-carbonyl)-1H-pyrazol-4-yl)-N-methylacetamide]		≥ 75		≥ 75
CC(=O)N(C)c1cnn(C(=O)N2CCC3(CCN(Cc4ccc(C(F)(F)F)c(N5CCOCC5)c4)C3)C2)c1 (stereo not drawn) [Example 61, N-methyl-N-(1-(7-(3-morpholino-4-(trifluoromethyl)benzyl)-2,7-diazaspiro[4.4]nonane-2-carbonyl)-1H-pyrazol-4-yl)acetamide]	≤ 100	≥ 75	≤ 100	≥ 75
CC(=O)N(C)c1cnn(C(=O)N2CCN(Cc3cccc(N4CCCC4)c3)CC2)c1 [Example 208, N-methyl-N-(1-(4-(3-(pyrrolidin-1-yl)benzyl)piperazine-1-carbonyl)-1H-pyrazol-4-yl)acetamide]	100 to 1000	≥ 75	≤ 100	≥ 75
CC(=O)N(C)c1cnn(C(=O)N2CC3CN(Cc4ccc(Oc5ccnnc5)cc4C(F)(F)F)CC3C2)c1 (stereo not drawn) [Example 258, N-methyl-N-(1-(5-(4-(pyridazin-4-yloxy)-2-(trifluoromethyl)benzyl)octahydropyrrolo [3,4-c]pyrrole-2-carbonyl)-1H-pyrazol-4-yl)acetamide]		≥ 75		≥ 75
CC(=O)N(C)c1cnn(C(=O)N2CC3(CCN(Cc4ccc(Cl)c(Cl)c4)CC3)C2)c1 [Example 18, N-(1-(7-(3,4-dichlorobenzyl)-2,7-diazaspiro[3.5]nonane-2-carbonyl)-1H-pyrazol-4-yl)-N-methylacetamide]		≥ 75		25 to 50
CS(=O)(=O)Nc1cnn(C(=O)N2CCN(Cc3ccc(-c4cnccn4)cc3C(F)(F)F)CC2)c1 [Example 289, N-(1-(4-(4-(pyrazin-2-yl)-2-(trifluoromethyl)benzyl)piperazine-1-carbonyl)-1H-pyrazol-4-yl)methanesulfonamide]		≥ 75		25 to 50
CC(=O)N(C)c1cnn(C(=O)N2CCC3(CC2)CN(Cc2cccc(Oc4ccccc4)c2)C3)c1 [Example 235, N-methyl-N-(1-(2-(3-phenoxybenzyl)-2,7-diazaspiro[3.5]nonane-7-carbonyl)-1H-pyrazol-4-yl)acetamide]	≤ 100	≥ 75	≤ 100	≥ 75
CC(=O)N(C)c1cnn(C(=O)N2CCC3(CCN(Cc4ccc(-c5nccs5)cc4Cl)C3)C2)c1 (stereo not drawn) [Example 269, N-(1-(7-(2-chloro-4-(thiazol-2-yl)benzyl)-2,7-diazaspiro[4.4]nonane-2-carbonyl)-1H-pyrazol-4-yl)-N-methylacetamide]		≥ 75		≥ 75
